A short description of series [1]: logP determination by HPLC on reversed-phase column (C18), EEC Directive 79/831 Annex V.A8. Conditions: for logPa: C18, 40° C., 0.1% aqueous formic acid and acetonitrile; for log P (pH 2.3): pH 2.3, C18. It is filed as physicochemical. On the procedure:
Calibration was carried out using unbranched alkan-2-ones (comprising 3 to 16 carbon atoms) with known logP values (determination of the logP values by the retention times using linear interpolation between two successive alkanones).

In series [2] the test system is Heliothis viresens. Nature of the series: Efficacy Example I: in vivo protective test on Heliothis viresens (HELIVI). On the set-up: species or system Heliotis virescens. The conditions noted are these: soybean leaf sections sprayed, infested with eggs of cotton bollworm; concentration and time not given. The protocol:
in vivo Protective Test on Heliothis viresens (HELIVI)
(§1) To produce a suitable preparation of active compound, 1 part by weight of active compound is mixed with the stated amount of solvent and emulsifier, and the concentrate is diluted with emulsifier-containing water to the desired concentration.
Soybean (Glycine max.) leaf sections are sprayed with a preparation of the active ingredient of the desired concentration. Once dry, the leaf sections are infested with eggs of cotton bollworm (Heliotis virescens).
After the specified period of time, mortality in % is determined. 100% means that all eggs have been killed and 0% means that none of the eggs have been killed.

The test system of series [3] is Myzus persicae. The series is described as follows: Efficacy Example H: in vivo protective test on Myzus persicae (MYZUPE). Conditions: Chinese cabbage leaf-disks infected with all instars of green peach aphid, sprayed; concentration and time not given. The protocol:
in vivo Protective Test on Myzus persicae (MYZUPE)
as §1
Chinese cabbage (Brassica pekinesis) leaf-disks infected with all instars of the green peach aphid (Myzus persicae), are sprayed with a preparation of the active ingredient at the desired concentration.
After the specified period of time, mortality in % is determined. 100% means that all aphids have been killed; 0% means that none of the aphids have been killed.

For `CCN(C)C=Nc1cc(C)c(Oc2ccc3cc(C(O)c4ccccc4)ccc3c2)cc1C` (racemic) [Compound 19], in series [1], the logPa amounted to 2.21.

On to `Cc1cc([N+](=O)[O-])c(C)cc1Oc1ccc2ccccc2c1` [4-(naphthyl-2-oxy)-2,5-dimethylnitrobenzene], for which the “log P (pH 2.3)” value in series [1] is given as 5.04.

For `CCN(C)C=Nc1cc(C)c(Oc2ccc3ccccc3c2)cc1C` [Compound 1, N-ethyl-N-methyl-N′-[4-(naphthyl-2-oxy)-2,5-xylyl]form-amidine], the “log P (pH 2.3)” value in series [1] amounted to 2.38.

On to `Cc1cc(Oc2ccc3ccccc3c2)c(C)cc1N=CN1CCCCC1` [Compound 2, Piperidinyl-N-[4-(naphthyl-2-oxy)-2,5-xylyl]form-amidine], for which the “log P (pH 2.3)” value in series [1] amounted to 2.51.

For `Cc1cc(Oc2ccc3ccccc3c2)c(C)cc1N=CN(C)C(C)C` [Compound 4], the logPa in series [1] is recorded as 2.52.

`CCN(C)C=Nc1cc(C)c(Oc2ccc3ccc(O)cc3c2)cc1C` [Compound 5]: in series [1], the logPa was 1.92.

As for `Cc1cc(Oc2ccc3ccc(O)cc3c2)c(C)cc1N=CN(C)C(C)C` [Compound 6], in series [1], the logPa is given as 2.02.

On to `Cc1cc(Oc2ccc3cc(Br)ccc3c2)c(C)cc1N=CN(C)C(C)C` [Compound 7], for which the logPa in series [1] came out at 2.92.

Regarding `CCN(C)C=Nc1cc(C)c(Oc2ccc3cc(Br)ccc3c2)cc1C` [Compound 8], the logPa in series [1] is given as 2.69.

Turning to `CCCN(C)C=Nc1cc(C)c(Oc2ccc3cc(Br)ccc3c2)cc1C` [Compound 9], the logPa in series [1] stood at 2.89.

For the compound `CCCN(C)C=Nc1cc(C)c(Oc2ccc3cc(C#N)ccc3c2)cc1C` [Compound 10], in series [1], the logPa was 2.23. Further, the “activity (mortality in %)” value in series [2] is listed as “good activity”.

Compound `CCN(C)C=Nc1cc(C)c(Oc2ccc3cc(C#N)ccc3c2)cc1C` [Compound 11] came in with a logPa in series [1] of 2.07.

`Cc1cc(Oc2ccc3cc(C#N)ccc3c2)c(C)cc1N=CN(C)C(C)C` [Compound 12] registered a logPa in series [1] of 2.20.

Regarding `Cc1cc(Oc2ccc3cc(C(=O)c4ccccc4)ccc3c2)c(C)cc1N=CN(C)C(C)C` [Compound 13], the logPa in series [1] is 2.75. The “activity (mortality in %)” value in series [2] was “good activity”.

Compound `CCN(C)C=Nc1cc(C)c(Oc2ccc3cc(C(=O)c4ccccc4)ccc3c2)cc1C` [Compound 14] displayed a logPa in series [1] of 2.66.

The compound `CCCN(C)C=Nc1cc(C)c(Oc2ccc3cc(C(=O)c4ccccc4)ccc3c2)cc1C` [Compound 15] had a logPa in series [1] of 2.77.

`COc1ccc2ccc(Oc3cc(C)c(N=CN(C)C(C)C)cc3C)cc2c1` [Compound 16] displayed a logPa in series [1] of 2.56.

With `CCN(C)C=Nc1cc(C)c(Oc2ccc3ccc(OC)cc3c2)cc1C` [Compound 17], the logPa in series [1] is listed as 2.44. For the same compound, in series [3], the “activity (mortality in %)” value was “good activity”.

Take `CCCN(C)C=Nc1cc(C)c(Oc2ccc3ccc(OC)cc3c2)cc1C` [Compound 18]: the logPa in series [1] was 2.61.

With `CCCCNc1ccc2ccc(Oc3cc(C)c(N=CN(C)C(C)C)cc3C)cc2c1` [Compound 20], in series [1], the logPa is listed as 2.91.

Regarding `Cc1cc(Oc2ccc3ccccc3c2)c(C)cc1N=CN1CCOCC1` [Compound 21], in series [1], the logPa is listed as 2.21.

For `Cc1cc(Oc2ccc3ccccc3c2)c(C)cc1N=CN1CCNCC1` [Compound 22], in series [1], the logPa worked out at 1.55.

As for `Cc1cc(Oc2ccc3ccccc3c2)c(C)cc1N=CN1CCN(C)CC1` [Compound 23], the logPa in series [1] is given as 1.64.

Compound `CCCCNc1ccc2ccc(Oc3cc(C)c(N=CN(C)CC)cc3C)cc2c1` [Compound 24] showed a logPa in series [1] of 2.62.

For `CCCCNc1ccc2ccc(Oc3cc(C)c(N=CN(C)CCC)cc3C)cc2c1` [Compound 25], the logPa in series [1] was 2.91.

Regarding `Cc1cc(Oc2ccc3ccccc3c2)c(C)cc1N=CN1CCCC1` [Compound 26], in series [1], the logPa is 2.33.

In turn, `CON=C(c1ccccc1)c1ccc2cc(Oc3cc(C)c(N=CN(C)C(C)C)cc3C)ccc2c1` [Compound 27] gave a logPa in series [1] of 3.20.

The compound `CCN(C)C=Nc1cc(C)c(Oc2ccc3cc(C(=NOC)c4ccccc4)ccc3c2)cc1C` [Compound 28] showed a logPa in series [1] of 3.05.

`CCCN(C)C=Nc1cc(C)c(Oc2ccc3cc(C(=NOC)c4ccccc4)ccc3c2)cc1C` [Compound 29] returned a logPa in series [1] of 3.14.

With `COc1ccc2cc(Oc3cc(C)c(N=CN(C)C(C)C)cc3C)ccc2c1` [Compound 30], the logPa in series [1] turned out to be 2.70.

On to `Cc1cc(Oc2ccc3cc(S(=O)(=O)NCCO)ccc3c2)c(C)cc1N=CN(C)C(C)C` [Compound 31], for which the logPa in series [1] was 1.75.

Compound `CCN(C)C=Nc1cc(C)c(Oc2cccc3ccccc23)cc1C` [Compound 32] came in with a logPa in series [1] of 2.43.

In series [1], `CC(=O)O.CCN(C)C=Nc1cc(C)c(Oc2ccc3ccccc3c2)cc1C` [Compound 34] registered a logPa of 2.33.

`CCN(C)C=Nc1cc(C)c(Oc2ccc3ccccc3c2)cc1C.O=C(O)C(=O)O` [Compound 35] returned a logPa in series [1] of 2.25.

For the compound `CCN(C)C=Nc1cc(C)c(Oc2ccc3ccccc3c2)cc1C.O=C(O)c1ccccc1` [Compound 36], in series [1], the logPa is 2.44.

The values above are taken from patent US8129558B2, “Pesticide naphthyloxy substituted phenylamidine derivatives” (Bayer Cropscience AG, priority 2005, dated 2012).
